The values that follow come from patent US20170334899A1, “AMINO-SUBSTITUTED ISOTHIAZOLES” (Bayer Pharma Aktiengesellschaft, priority 2014, published 2017).

The test system of test [1] is human cervical tumor cell line HeLa (ATCC CCL-2). Kind of test: SAC-Formation - Nocodazole-Induced Assay. Type of test: cell-based. The note with it: Homo sapiens, HeLa, 24 h, HeLa cells, nocodazole 0.1 μg/ml together with test compound, decrease of mitotic cells (phospho-histone H3 Ser10). Put shortly: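 HeLa cells, plated overnight, were treated 24 h at 37 °C with nocodazole (0.1 μg/ml final) plus test compound (0.005–20 μM, 0.5% DMSO) added at the same time. After fixation, anti-phospho-histone H3 Ser10 and Hoechst staining gave the mitotic cell fraction by imaging. Values came from four-parameter Hill fits.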

In a further test the test system is HeLa. Description: Proliferation assay (crystal violet), HeLa. The note with it: HeLa cells, 4 days incubation, crystal violet staining, read-out: IC50 inhibition of proliferation, HeLa. Type of test: cell-based. Put shortly:
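Tumor cells seeded at 1000–5000 cells/well in medium with 10% FCS; after 24 h, compounds added at 0.001–10 μM (0.5% DMSO) for 4 days. Cells fixed with glutaraldehyde, stained with crystal violet, dye dissolved in acetic acid and read at 595 nm. IC50 from 4-parameter fit, normalized to zero-point plate and untreated cells.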

Like-named read-outs stand apart in the source and are kept apart here.

Take `Cc1nsc(Nc2cnc(C(F)(F)F)cn2)c1C(=O)Nc1ccc(OC2CCCN(CC(F)F)C2)nc1` (stereo not shown) [Example 330, N-(6-{[1-(2,2-difluoroethyl)piperidin-3-yl]oxy}pyridin-3-yl)-3-methyl-5-{[5-(trifluoromethyl)pyrazin-2-yl]amino}-1,2-thiazole-4-carboxamide]: the IC50 came to 0.023 µM in test [1] and 1.2 µM in the test with HeLa (Homo sapiens, HeLa, 96 h).
As to `CCN1CC[C@H](Oc2ccc(NC(=O)c3c(C)nsc3Nc3cnc(C(F)(F)F)cn3)cn2)[C@@H](F)C1` [Example 365, N-(6-{[(3S,4S)-1-ethyl-3-fluoropiperidin-4-yl]oxy}pyridin-3-yl)-3-methyl-5-{[5-(trifluoromethyl)pyrazin-2-yl]amino}-1,2-thiazole-4-carboxamide], the IC50 is 0.034 µM in test [1] and 0.41 µM in the test on HeLa (Homo sapiens, HeLa, 96 h).
Regarding `CCCN1CC[C@H](Oc2ccc(NC(=O)c3c(C)nsc3Nc3cnc(C(F)(F)F)cn3)cn2)[C@@H](F)C1` [Example 370, N-(6-{[(3S,4S)-3-fluoro-1-propylpiperidin-4-yl]oxy}pyridin-3-yl)-3-methyl-5-{[5-(trifluoromethyl)pyrazin-2-yl]amino}-1,2-thiazole-4-carboxamide], the IC50 amounted to 0.022 µM in test [1] and 0.3 µM with HeLa (Homo sapiens, HeLa, 96 h).
For `Cc1nsc(Nc2cnc(C(F)(F)F)cn2)c1C(=O)Nc1ccc(OCC2CCCN(CC(F)F)C2)nc1` (stereo not shown) [Example 327, N-(6-{[1-(2,2-difluoroethyl)piperidin-3-yl]methoxy}pyridin-3-yl)-3-methyl-5-{[5-(trifluoromethyl)pyrazin-2-yl]amino}-1,2-thiazole-4-carboxamide], in that order: 0.0063 µM and 0.37 µM.
As to `Cc1nsc(Nc2cnc(C(F)(F)F)cn2)c1C(=O)Nc1ccc(N2CCN(CC(F)(F)F)CC2)nc1` [Example 360, 3-methyl-N-{6-[4-(2,2,2-trifluoroethyl)piperazin-1-yl]pyridin-3-yl}-5-{[5-(trifluoromethyl)pyrazin-2-yl]amino}-1,2-thiazole-4-carboxamide], the IC50 was determined as 0.036 µM in test [1] and 0.35 µM with HeLa (Homo sapiens, HeLa, 96 h).
Consider `Cc1nsc(Nc2cnc(C(F)(F)F)cn2)c1C(=O)Nc1ccc(OCCN(C)CC(F)(F)F)nc1` [Example 350, 3-methyl-N-(6-{2-[methyl(2,2,2-trifluoroethyl)amino]ethoxy}pyridin-3-yl)-5-{[5-(trifluoromethyl)pyrazin-2-yl]amino}-1,2-thiazole-4-carboxamide], for which the IC50 came to 0.099 µM in test [1] and 0.28 µM in the test on HeLa (Homo sapiens, HeLa, 96 h).
For `Cc1nsc(Nc2cnc(C(F)(F)F)cn2)c1C(=O)Nc1ccc(CCC2CCN(CC(F)F)CC2)nc1` [Example 356, N-(6-{2-[1-(2,2-difluoroethyl)piperidin-4-yl]ethyl}pyridin-3-yl)-3-methyl-5-{[5-(trifluoromethyl)pyrazin-2-yl]amino}-1,2-thiazole-4-carboxamide], in that order: 0.05 µM and 0.77 µM.
For `Cc1nsc(Nc2cnc(C(F)(F)F)cn2)c1C(=O)Nc1ccc(OC[C@@H]2CCCN(CC(F)(F)F)C2)nc1` [Example 376, 3-methyl-N-(6-{[(3R)-1-(2,2,2-trifluoroethyl)piperidin-3-yl]methoxy}pyridin-3-yl)-5-{[5-(trifluoromethyl)pyrazin-2-yl]amino}-1,2-thiazole-4-carboxamide], in that order: 0.05 µM and 0.31 µM.
For `Cc1nsc(Nc2cnc(C(F)(F)F)cn2)c1C(=O)Nc1ccc(OCCN(C)CC(F)F)nc1` [Example 349, N-(6-{2-[(2,2-difluoroethyl)(methyl)amino]ethoxy}pyridin-3-yl)-3-methyl-5-{[5-(trifluoromethyl)pyrazin-2-yl]amino}-1,2-thiazole-4-carboxamide], in that order: 0.081 µM and 0.35 µM.
`Cc1nsc(Nc2cnc(C(F)(F)F)cn2)c1C(=O)Nc1ccc(OCCCN(C)CC(F)F)nc1` [Example 353, N-(6-{3-[(2,2-difluoroethyl)(methyl)amino]propoxy}pyridin-3-yl)-3-methyl-5-{[5-(trifluoromethyl)pyrazin-2-yl]amino}-1,2-thiazole-4-carboxamide]: the IC50 worked out at 0.096 µM in test [1] and 0.33 µM with HeLa (Homo sapiens, HeLa, 96 h).
With `Cc1nsc(Nc2cnc(C(F)(F)F)cn2)c1C(=O)Nc1ccc(F)c(OC[C@@H]2CCCN(CCC(F)(F)F)C2)c1` [Example 395, N-(4-fluoro-3-{[(3R)-1-(3,3,3-trifluoropropyl)piperidin-3-yl]methoxy}phenyl)-3-methyl-5-{[5-(trifluoromethyl)pyrazin-2-yl]amino}-1,2-thiazole-4-carboxamide], the IC50 is 0.035 µM in test [1] and 0.48 µM in the test on HeLa (Homo sapiens, HeLa, 96 h).
Consider `Cc1nsc(Nc2cnc(C(F)(F)F)cn2)c1C(=O)Nc1ccc(O[C@H]2CCN(CCC(F)(F)F)C2)nc1` [Example 384, 3-methyl-5-{[5-(trifluoromethyl)pyrazin-2-yl]amino}-N-(6-{[(3S)-1-(3,3,3-trifluoropropyl)pyrrolidin-3-yl]oxy}pyridin-3-yl)-1,2-thiazole-4-carboxamide], for which the IC50 was 0.062 µM in test [1] and 0.34 µM with HeLa (Homo sapiens, HeLa, 96 h).
On the same counts, the results for `CCN1CCC(COc2ccc(NC(=O)c3c(C)nsc3Nc3cnc(C(F)(F)F)cn3)cn2)C(F)(F)C1` (stereo not shown) [Example 393, N-{6-[(1-ethyl-3,3-difluoropiperidin-4-yl)methoxy]pyridin-3-yl}-3-methyl-5-{[5-(trifluoromethyl)pyrazin-2-yl]amino}-1,2-thiazole-4-carboxamide] are 0.014 µM and 0.43 µM.
For `Cc1nsc(Nc2cnc(C(F)(F)F)cn2)c1C(=O)Nc1ccc(O[C@@H]2CCN(CC(F)F)C[C@H]2F)nc1` [Example 366, N-(6-{[(3R,4R)-1-(2,2-difluoroethyl)-3-fluoropiperidin-4-yl]oxy}pyridin-3-yl)-3-methyl-5-{[5-(trifluoromethyl)pyrazin-2-yl]amino}-1,2-thiazole-4-carboxamide], in that order: 0.058 µM and 0.3 µM.
On the same counts, the results for `Cc1nsc(Nc2cnc(C(F)(F)F)cn2)c1C(=O)Nc1ccc(OC2CCCN(CCF)C2)nc1` (stereo not shown) [Example 329, N-(6-{[1-(2-fluoroethyl)piperidin-3-yl]oxy}pyridin-3-yl)-3-methyl-5-{[5-(trifluoromethyl)pyrazin-2-yl]amino}-1,2-thiazole-4-carboxamide] are 0.035 µM and 1.3 µM.
Consider `Cc1nsc(Nc2cnc3ccccc3n2)c1C(=O)Nc1ccc(OC2CCCN(CC(F)F)C2)nc1` (stereo not shown) [Example 33, N-(6-{[1-(2,2-Difluoroethyl)piperidin-3-yl]oxy}pyridin-3-yl)-3-methyl-5-(quinoxalin-2-ylamino)-1,2-thiazole-4-carboxamide], for which the IC50 was determined as 1.4 µM in test [1] and 2.4 µM in the test on HeLa (Homo sapiens, HeLa, 96 h).
For `Cc1nsc(Nc2cnc(C(F)(F)F)cn2)c1C(=O)Nc1ccc(OCCNCCC(F)(F)F)nc1` [Example 323, 3-methyl-5-{[5-(trifluoromethyl)pyrazin-2-yl]amino}-N-(6-{2-[(3,3,3-trifluoropropyl)amino]ethoxy}pyridin-3-yl)-1,2-thiazole-4-carboxamide], in that order: 0.03 µM and 0.95 µM.
For the compound `Cc1nsc(Nc2ccc(C#N)cn2)c1C(=O)Nc1ccc(OC2CCNCC2)nc1` [Example 28, 5-[(5-Cyanopyridin-2-yl)amino]-3-methyl-N-[6-(piperidin-4-yloxy)pyridin-3-yl]-1,2-thiazole-4-carboxannide], the IC50 turned out to be 11 µM in test [1] and 3.7 µM in the test on HeLa (Homo sapiens, HeLa, 96 h).
Take `Cc1nsc(Nc2cnc(C(F)(F)F)cn2)c1C(=O)Nc1ccc(F)c(OCC2CCCN(CC(F)F)C2)c1` (stereo not shown) [Example 334, N-(3-{[1-(2,2-difluoroethyl)piperidin-3-yl]methoxy}-4-fluorophenyl)-3-methyl-5-{[5-(trifluoromethyl)pyrazin-2-yl]amino}-1,2-thiazole-4-carboxamide]: the IC50 in test [1] was 0.047 µM; in the test on HeLa, 0.37 µM.
In the case of `Cc1nsc(Nc2cnc(C(F)(F)F)cn2)c1C(=O)Nc1ccc(OC2CCN(C(CF)CF)CC2)nc1` [Example 324, N-(6-{[1-(1,3-difluoropropan-2-yl)piperidin-4-yl]oxy}pyridin-3-yl)-3-methyl-5-{[5-(trifluoromethyl)pyrazin-2-yl]amino}-1,2-thiazole-4-carboxamide], the IC50 in test [1] is 0.071 µM; in the test with HeLa (Homo sapiens, HeLa, 96 h) it was 0.87 µM.
For `Cc1nsc(Nc2cnc(C(F)(F)F)cn2)c1C(=O)Nc1ccc(F)c(OC[C@@H]2CCCN(CC(F)(F)F)C2)c1` [Example 342, N-(4-fluoro-3-{[(3R)-1-(2,2,2-trifluoroethyl)piperidin-3-yl]methoxy}phenyl)-3-methyl-5-{[5-(trifluoromethyl)pyrazin-2-yl]amino}-1,2-thiazole-4-carboxamide], in that order: 0.072 µM and 0.47 µM.
In the case of `Cc1nsc(Nc2cnc(C(F)(F)F)cn2)c1C(=O)Nc1ccc(OCCN(C)CCC(F)(F)F)nc1` [Example 351, 3-methyl-N-(6-{2-[methyl(3,3,3-trifluoropropyl)amino]ethoxy}pyridin-3-yl)-5-{[5-(trifluoromethyl)pyrazin-2-yl]amino}-1,2-thiazole-4-carboxamide], the IC50 in test [1] is 0.098 µM; in the test on HeLa (Homo sapiens, HeLa, 96 h) it was 0.35 µM.
Take `Cc1nsc(Nc2cnc(C(F)(F)F)cn2)c1C(=O)Nc1ccc(O[C@H]2CCN(CC(F)F)C[C@@H]2F)nc1` [Example 362]: the IC50 in test [1] is 0.0023 µM; in the test on HeLa (Homo sapiens, HeLa, 96 h) it was 0.34 µM.
